From patent US20250268849A1, “TREATMENT OF LOW-GRADE GLIOMA WITH MIRDAMETINIB” (St. Jude Children’s Research Hospital, Inc., priority 2022, published 2025)

Tested on: Low-Grade Glioma (LGG)
Test: Phase I/II trial of single agent mirdametinib in patients with low-grade glioma
Assay type: in vivo, human
Protocol: Example 1: Phase I/II Evaluation of Single Agent Mirdametinib, a Brain-Penetrant MEK1/2 Inhibitor, for the Treatment of Children, Adolescents, and Young Adults With Low-Grade Glioma (LGG) A multi-arm phase I/II trial of mirdametinib is currently being conducted in patients ≥2 and <25 years with LGG. Phase I requires participants have no prior exposure to MEK inhibitors and recurrent/progressive disease with biopsy-proven evidence of MAPK pathway activation. Three escalating dose levels (2 mg/m^2/dose BID, 2.5 mg/m^2/dose BID and 3 mg/m^2/dose BID) are planned using a rolling 6 design. The median age enrolled in the study is 10 years (3-21 years old). 10 patients have somatic gene rearrangements (7 BRAF, 1 MYB, 1 RAF1, 1 FGFR1); 1 patient has a NF1 germline mutation; and 3 patients have metastatic disease. […] Of the 11 patients having a somatic gene rearrangement or NF1, 4 patients with BRAF and the 1 patient with FGFR1 received a dose of 2 mg/m^2 BID. The remainder of the 11 patients (3 BRAF, 1 MYB, 1 NF1, and 1 RAF1) received a dose of 2.5 mg/m^2 BID.

**Q.** Which results are given for O=C(NOC[C@H](O)CO)c1ccc(F)c(F)c1Nc1ccc(I)cc1F (single isomer, unassigned) [mirdametinib]?
**A.** Minor Response (MR), patients (decrease by 25-50%) (2 mg/m^2 BID (N = 5)): 4 (80.0%); Partial Response (PR), patients (decrease in tumor size by 50-75%) (2 mg/m^2 BID (N = 5), patients with somatic gene rearrangement or NF1, as of cut-off date): 1 (20.0%); Minor Response (MR), patients (decrease by 25-50%) (2.5 mg/m^2 BID (N = 6)): 3 (50.0%); Stable Disease (SD), patients (stable tumor size or decrease up to 25%) (2.5 mg/m^2 BID (N = 6)): 3 (50.0%); Minor Response (MR), patients (decrease by 25-50%) (Total (N = 11)): 7 (63.6%); Stable Disease (SD), patients (stable tumor size or decrease up to 25%) (Total (N = 11)): 3 (27.3%); Partial Response (PR), patients (decrease in tumor size by 50-75%) (Total (N = 11), 2 and 2.5 mg/m^2 BID pooled): 1 (9.1%); dose-limiting toxicities (dose level 1 (2 mg/m^2)): No dose-limiting toxicities occurred; tolerability (dosed continuously, recurrent/progressive pediatric LGG): well-tolerated; patients with minor response (>25%-<50% decrease) (patients who completed at least one follow-up disease evaluation): Four of the six patients; MEK related retinopathy or cardiopathy (phase I): No MEK related retinopathy or cardiopathy has been observed; disease progressions (phase I): No disease progressions have occurred; treatment-related adverse events, grade (phase I, dose levels 1 and 2): Only grade 1 and 2
